Test results: the NIST ThermoML archive (doi:10.1016/j.jct.2017.03.006)
Numbers after ± are expanded uncertainties.

Experiment: xn = mol fraction of the nth substance listed
Conditions: 313.15 K, Liquid; for viscosity: Concentric cylinders viscometry; for mass density: Vibrating tube method

Work on `Cc1ccc(C)c(C)c1` [1,2,4-trimethylbenzene] + CCC(C)O yielded a viscosity (100 kPa, x2 = 0.5298) of 0.773 ± 0.017 mPa·s, a viscosity (100 kPa, x2 = 0.6001) of 0.84 ± 0.018 mPa·s and a viscosity (100 kPa, x2 = 0.7001) of 0.94 ± 0.02 mPa·s. For the same compound, the viscosity (100 kPa, x2 = 0.7997) was 1.09 ± 0.023 mPa·s, the viscosity (100 kPa, x2 = 0.9001) was 1.35 ± 0.028 mPa·s and the mass density (100 kPa, x2 = 0) was 859 ± 0.7 kg/m3. It also gave a mass density (100 kPa, x2 = 0.1) of 852.6 ± 0.7 kg/m3, a mass density (100 kPa, x2 = 0.1989) of 846.6 ± 0.7 kg/m3 and a mass density (100 kPa, x2 = 0.3011) of 840.2 ± 0.7 kg/m3. The mass density (100 kPa, x2 = 0.4002) was 834 ± 0.7 kg/m3, the mass density (100 kPa, x2 = 0.5001) was 827.5 ± 0.7 kg/m3 and the mass density (100 kPa, x2 = 0.5997) was 820.6 ± 0.7 kg/m3. The mass density (100 kPa, x2 = 0.6999) was 813.4 ± 0.7 kg/m3, the mass density (100 kPa, x2 = 0.7999) was 806 ± 0.7 kg/m3 and the mass density (100 kPa, x2 = 0.9) was 797.9 ± 0.7 kg/m3. It also gave a mass density (1000 kPa, x2 = 0) of 859.7 ± 0.7 kg/m3, a mass density (1000 kPa, x2 = 0.1) of 853.3 ± 0.7 kg/m3 and a mass density (1000 kPa, x2 = 0.1989) of 847.2 ± 0.7 kg/m3. The mass density (1000 kPa, x2 = 0.3011) was 840.9 ± 0.7 kg/m3, the mass density (1000 kPa, x2 = 0.4002) was 834.7 ± 0.7 kg/m3 and the mass density (1000 kPa, x2 = 0.5001) was 828.2 ± 0.7 kg/m3. For the same compound, the mass density (1000 kPa, x2 = 0.5997) was 821.3 ± 0.7 kg/m3, the mass density (1000 kPa, x2 = 0.6999) was 814.2 ± 0.7 kg/m3 and the mass density (1000 kPa, x2 = 0.7999) was 806.7 ± 0.7 kg/m3. It also gave a mass density (1000 kPa, x2 = 0.9) of 798.7 ± 0.7 kg/m3, a mass density (2000 kPa, x2 = 0) of 860.4 ± 0.7 kg/m3 and a mass density (2000 kPa, x2 = 0.1) of 854.1 ± 0.7 kg/m3. It also gave a mass density (2000 kPa, x2 = 0.1989) of 848 ± 0.7 kg/m3, a mass density (2000 kPa, x2 = 0.3011) of 841.7 ± 0.7 kg/m3 and a mass density (2000 kPa, x2 = 0.4002) of 835.6 ± 0.7 kg/m3. It also gave a mass density (2000 kPa, x2 = 0.5001) of 829.1 ± 0.7 kg/m3, a mass density (2000 kPa, x2 = 0.5997) of 822.2 ± 0.7 kg/m3 and a mass density (2000 kPa, x2 = 0.6999) of 815 ± 0.7 kg/m3. For the same compound, the mass density (2000 kPa, x2 = 0.7999) was 807.6 ± 0.7 kg/m3, the mass density (2000 kPa, x2 = 0.9) was 799.6 ± 0.7 kg/m3 and the mass density (5000 kPa, x2 = 0) was 862.6 ± 0.7 kg/m3. For the same compound, the mass density (5000 kPa, x2 = 0.1) was 856.3 ± 0.7 kg/m3, the mass density (5000 kPa, x2 = 0.1989) was 850.3 ± 0.7 kg/m3 and the mass density (5000 kPa, x2 = 0.3011) was 844.1 ± 0.7 kg/m3. It also gave a mass density (5000 kPa, x2 = 0.4002) of 838 ± 0.7 kg/m3, a mass density (5000 kPa, x2 = 0.5001) of 831.5 ± 0.7 kg/m3 and a mass density (5000 kPa, x2 = 0.5997) of 824.6 ± 0.7 kg/m3. For the same compound, the mass density (5000 kPa, x2 = 0.6999) was 817.5 ± 0.7 kg/m3, the mass density (5000 kPa, x2 = 0.7999) was 810.1 ± 0.7 kg/m3 and the mass density (5000 kPa, x2 = 0.9) was 802.1 ± 0.7 kg/m3. It also gave a mass density (10000 kPa, x2 = 0) of 866 ± 0.7 kg/m3, a mass density (10000 kPa, x2 = 0.1) of 860 ± 0.7 kg/m3 and a mass density (10000 kPa, x2 = 0.1989) of 854.1 ± 0.7 kg/m3. It also gave a mass density (10000 kPa, x2 = 0.3011) of 847.9 ± 0.7 kg/m3, a mass density (10000 kPa, x2 = 0.4002) of 841.7 ± 0.7 kg/m3 and a mass density (10000 kPa, x2 = 0.5001) of 835.4 ± 0.7 kg/m3. For the same compound, the mass density (10000 kPa, x2 = 0.5997) was 828.5 ± 0.7 kg/m3, the mass density (10000 kPa, x2 = 0.6999) was 821.5 ± 0.7 kg/m3 and the mass density (10000 kPa, x2 = 0.7999) was 814.2 ± 0.7 kg/m3. It also gave a mass density (10000 kPa, x2 = 0.9) of 806.2 ± 0.7 kg/m3, a mass density (15000 kPa, x2 = 0) of 869.3 ± 0.7 kg/m3 and a mass density (15000 kPa, x2 = 0.1) of 863.5 ± 0.7 kg/m3. It also gave a mass density (15000 kPa, x2 = 0.1989) of 857.6 ± 0.7 kg/m3, a mass density (15000 kPa, x2 = 0.3011) of 851.5 ± 0.7 kg/m3 and a mass density (15000 kPa, x2 = 0.4002) of 845.4 ± 0.7 kg/m3. It also gave a mass density (15000 kPa, x2 = 0.5001) of 839.1 ± 0.7 kg/m3, a mass density (15000 kPa, x2 = 0.5997) of 832.3 ± 0.7 kg/m3 and a mass density (15000 kPa, x2 = 0.6999) of 825.3 ± 0.7 kg/m3. It also gave a mass density (15000 kPa, x2 = 0.7999) of 818 ± 0.7 kg/m3, a mass density (15000 kPa, x2 = 0.9) of 810.1 ± 0.7 kg/m3 and a mass density (20000 kPa, x2 = 0) of 872.6 ± 0.7 kg/m3. For the same compound, the mass density (20000 kPa, x2 = 0.1) was 866.8 ± 0.7 kg/m3, the mass density (20000 kPa, x2 = 0.1989) was 861 ± 0.7 kg/m3 and the mass density (20000 kPa, x2 = 0.3011) was 854.9 ± 0.7 kg/m3. It also gave a mass density (20000 kPa, x2 = 0.4002) of 848.9 ± 0.7 kg/m3, a mass density (20000 kPa, x2 = 0.5001) of 842.6 ± 0.7 kg/m3 and a mass density (20000 kPa, x2 = 0.5997) of 835.9 ± 0.7 kg/m3. It also gave a mass density (20000 kPa, x2 = 0.6999) of 829 ± 0.7 kg/m3, a mass density (20000 kPa, x2 = 0.7999) of 821.7 ± 0.7 kg/m3 and a mass density (20000 kPa, x2 = 0.9) of 813.8 ± 0.7 kg/m3. It also gave a mass density (30000 kPa, x2 = 0) of 878.7 ± 0.7 kg/m3, a mass density (30000 kPa, x2 = 0.1) of 873.2 ± 0.7 kg/m3 and a mass density (30000 kPa, x2 = 0.1989) of 867.5 ± 0.7 kg/m3. It also gave a mass density (30000 kPa, x2 = 0.3011) of 861.5 ± 0.7 kg/m3, a mass density (30000 kPa, x2 = 0.4002) of 855.6 ± 0.7 kg/m3 and a mass density (30000 kPa, x2 = 0.5001) of 849.4 ± 0.7 kg/m3. It also gave a mass density (30000 kPa, x2 = 0.5997) of 842.8 ± 0.8 kg/m3, a mass density (30000 kPa, x2 = 0.6999) of 835.8 ± 0.8 kg/m3 and a mass density (30000 kPa, x2 = 0.7999) of 828.6 ± 0.8 kg/m3. The mass density (30000 kPa, x2 = 0.9) was 820.8 ± 0.8 kg/m3, the mass density (40000 kPa, x2 = 0) was 884.5 ± 0.7 kg/m3 and the mass density (40000 kPa, x2 = 0.1) was 879.2 ± 0.7 kg/m3. The mass density (40000 kPa, x2 = 0.1989) was 873.5 ± 0.8 kg/m3, the mass density (40000 kPa, x2 = 0.3011) was 867.6 ± 0.8 kg/m3 and the mass density (40000 kPa, x2 = 0.4002) was 861.7 ± 0.8 kg/m3. The mass density (40000 kPa, x2 = 0.5001) was 855.8 ± 0.8 kg/m3, the mass density (40000 kPa, x2 = 0.5997) was 849 ± 0.8 kg/m3 and the mass density (40000 kPa, x2 = 0.6999) was 842.2 ± 0.8 kg/m3. The mass density (40000 kPa, x2 = 0.7999) was 835 ± 0.8 kg/m3, the mass density (40000 kPa, x2 = 0.9) was 827.3 ± 0.8 kg/m3 and the mass density (50000 kPa, x2 = 0) was 889.9 ± 0.8 kg/m3. It also gave a mass density (50000 kPa, x2 = 0.1) of 884.8 ± 0.8 kg/m3, a mass density (50000 kPa, x2 = 0.1989) of 879.3 ± 0.8 kg/m3 and a mass density (50000 kPa, x2 = 0.3011) of 873.4 ± 0.8 kg/m3. It also gave a mass density (50000 kPa, x2 = 0.4002) of 867.5 ± 0.8 kg/m3 and a mass density (50000 kPa, x2 = 0.5001) of 861.6 ± 0.8 kg/m3.
